# Test results: PubChem BioAssay (NCI)
# Values joined by “and” are separate entries in the source; they are usually repeats but may differ in a detail not shown here. Equal values may be shown once.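 Five concentrations, 48 hours, 96-well plates. At the GI50, growth is halved. TGI is the concentration that stops growth completely.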
# What was measured:
# Experiment in all cases: inhibition of tumour cell growth, NCI panel, 48 h
# LXFL 529 NSCLC = system: LXFL 529 NSCLC
# DMS 273 small cell lung = system: DMS 273 small cell lung
# DMS 114 small cell lung = system: DMS 114 small cell lung
# XF 498 CNS = system: XF 498 CNS
# DLD-1 colon = system: DLD-1 colon
# SNB-78 CNS = system: SNB-78 CNS
# HOP-18 NSCLC = system: HOP-18 NSCLC
# M19-MEL melanoma = system: M19-MEL melanoma
# RXF-631 renal = system: RXF-631 renal
SMILES,TGI (LXFL 529 NSCLC),TGI (DMS 273 small cell lung),TGI (DMS 114 small cell lung),TGI (XF 498 CNS),TGI (DLD-1 colon),TGI (SNB-78 CNS),TGI (HOP-18 NSCLC),TGI (M19-MEL melanoma),TGI (RXF-631 renal),GI50 (XF 498 CNS),GI50 (HOP-18 NSCLC)
O=C(O)C(Cc1ccc(O)cc1)N=Cc1nc(-c2ccccc2)oc1O (centres undefined),> 100 µM,> 100 µM,> 100 µM,> 100 µM,> 100 µM,> 100 µM,> 100 µM,–,–,–,–
COc1cc(Br)c(/C=N/N=C(\N)NO)cc1OC,> 100 µM,> 100 µM,33.6 µM,69.6 µM,> 100 µM,> 100 µM,> 100 µM,76.2 µM,> 100 µM,–,–
Nc1ccc(C(=O)NN2C(=O)C(Cl)C2c2ccc(O)cc2)cc1 (centres undefined),31.7 µM,35.1 µM,25.7 µM,27.8 µM,33.4 µM,44.6 µM,–,38.8 µM,–,–,–
C=Cc1c(-c2ccccc2)cnc2[nH]c3ccccc3c12,> 50 µM,> 50 µM,> 50 µM,> 50 µM,> 50 µM,–,–,> 50 µM,–,–,–
COc1cc2c(c(OC)c1OC)[C@@H]1CCCCC[C@@H]1CCC2=O,> 100 µM,> 100 µM,> 57.1 µM,> 100 µM,> 61 µM,–,> 100 µM,> 100 µM,> 100 µM,–,–
CC(=O)NC1=C(NCCO)C(=O)c2ccccc2C1=O,> 50 µM,> 50 µM,–,> 50 µM,> 50 µM,> 50 µM,–,18.6 µM,–,–,–
COc1cc(CNc2ccc(C)cc2)cc(OC)c1OC,> 100 µM,–,0.981 µM and 3.08 µM,> 100 µM,> 100 µM,> 100 µM,> 100 µM,> 100 µM,–,1.98 µM,17.8 µM and > 60.8 µM
COc1cc(C(C)c2cc3c(cc2OCCCCCOc2cc4c(cc2C(C)c2cc(OC)c(OC)c(OC)c2)OCO4)OCO3)cc(OC)c1OC (centres undefined),> 100 µM,> 100 µM,–,–,> 100 µM,–,–,> 100 µM,–,–,–
O=C(CC(=O)n1nc(-c2ccccc2)c(N=Nc2ccc([N+](=O)[O-])cc2)c1-c1ccccc1)Nc1ccc(Cl)cc1,> 100 µM,> 100 µM,48.8 µM,59.1 µM,> 100 µM,> 100 µM,> 100 µM,> 100 µM,> 100 µM,–,–
COc1c(O)ccc(/C=N/NC(=S)NCOCCOC(C)=O)c1OC,> 100 µM,> 100 µM,> 100 µM,> 100 µM,> 100 µM,> 100 µM,> 100 µM,> 100 µM,> 100 µM,–,–
